Laboratory results as given in PubChem BioAssay AID2060502 (Molecular Pharmacology Branch, DTP, NCI, 2025).
Values belong to the molecule of their own block, whether it stands above or below them.

Tested on: 885724-159-R-J1-PDC complex spheroid viability
Test: Anticancer human tumor 885724-159-R-J1-PDC patient-derived pancreatic adenocarcinoma cell line growth inhibition [GQUAD]
Settings: for IC50: curve of first compound; for viability, T/C: stronger effect = lower value
Procedure, shortened: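 Multi-cell-type spheroids of tumor cells with HUVEC and mesenchymal stem cells, treated with drug combinations. Concentrations descend in half-log steps from near clinical Cmax, or from 10 microM where Cmax is unknown; viability read-out.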

[1] = second compound 0.0316 µM, first compound 0.000999 µM
[2] = second compound 0.0316 µM, first compound 0.00316 µM
[3] = second compound 0.0316 µM, first compound 0.00999 µM
[4] = second compound 0.0316 µM, first compound 0.0316 µM
[5] = second compound 0.0316 µM, first compound 0.0999 µM
[6] = second compound 0.0316 µM, first compound 0.316 µM
[7] = second compound 0.1 µM, first compound 0.000999 µM
[8] = second compound 0.1 µM, first compound 0.00316 µM
[9] = second compound 0.1 µM, first compound 0.00999 µM
[10] = second compound 0.1 µM, first compound 0.0316 µM
[11] = second compound 0.1 µM, first compound 0.0999 µM
[12] = second compound 0.1 µM, first compound 0.316 µM
[13] = second compound 0.316 µM, first compound 0.000999 µM
[14] = second compound 0.316 µM, first compound 0.00316 µM
[15] = second compound 0.316 µM, first compound 0.00999 µM
[16] = second compound 0.316 µM, first compound 0.0316 µM
[17] = second compound 0.316 µM, first compound 0.0999 µM
[18] = second compound 0.316 µM, first compound 0.316 µM
[19] = second compound 1 µM, first compound 0.000999 µM
[20] = second compound 1 µM, first compound 0.00316 µM
[21] = second compound 1 µM, first compound 0.00999 µM
[22] = second compound 1 µM, first compound 0.0316 µM
[23] = second compound 1 µM, first compound 0.0999 µM
[24] = second compound 1 µM, first compound 0.316 µM
[25] = second compound 3.16 µM, first compound 0.000999 µM
[26] = second compound 3.16 µM, first compound 0.00316 µM
[27] = second compound 3.16 µM, first compound 0.00999 µM
[28] = second compound 3.16 µM, first compound 0.0316 µM
[29] = second compound 3.16 µM, first compound 0.0999 µM
[30] = second compound 3.16 µM, first compound 0.316 µM
[31] = second compound 10 µM, first compound 0.000999 µM
[32] = second compound 10 µM, first compound 0.00316 µM
[33] = second compound 10 µM, first compound 0.00999 µM
[34] = second compound 10 µM, first compound 0.0316 µM
[35] = second compound 10 µM, first compound 0.0999 µM
[36] = second compound 10 µM, first compound 0.316 µM
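Also: spheroids exposed to agents for seven days before readout.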
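For viability, T/C in this document: percent of vehicle control viability where 100% = DMSO wells.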

SMILES: Cn1ncnc1[C@H]1c2n[nH]c(=O)c3cc(F)cc(c23)N[C@@H]1c1ccc(F)cc1 + Cc1[nH]c2ccc(F)cc2c1-c1nc2c3cccnc3c3ncccc3c2[nH]1
IC50 (second compound 0.0316 µM): > 316 nM | IC50 (second compound 0.1 µM): > 316 nM | IC50 (second compound 0.316 µM): > 316 nM | IC50 (second compound 1 µM): > 316 nM | IC50 (second compound 3.16 µM): < 0.999 nM | IC50 (second compound 10 µM): > 316 nM | viability, T/C [1]: 104% | viability, T/C [2]: 95.2% | viability, T/C [3]: 106% | viability, T/C [4]: 80.6% | viability, T/C [5]: 91.9% | viability, T/C [6]: 95.8% | viability, T/C [7]: 97.5% | viability, T/C [8]: 90% | viability, T/C [9]: 85.6% | viability, T/C [10]: 93.9% | viability, T/C [11]: 88.3% | viability, T/C [12]: 80.2% | viability, T/C [13]: 87.3% | viability, T/C [14]: 106% | viability, T/C [15]: 92% | viability, T/C [16]: 91.3% | viability, T/C [17]: 80.8% | viability, T/C [18]: 82.2% | viability, T/C [19]: 78% | viability, T/C [20]: 68.4% | viability, T/C [21]: 68.8% | viability, T/C [22]: 73.6% | viability, T/C [23]: 72% | viability, T/C [24]: 81% | viability, T/C [25]: 40.1% | viability, T/C [26]: 36.1% | viability, T/C [27]: 43.8% | viability, T/C [28]: 33.8% | viability, T/C [29]: 38% | viability, T/C [30]: 42.8% | viability, T/C [31]: 63% | viability, T/C [32]: 78.6% | viability, T/C [33]: 73.6% | viability, T/C [34]: 66.8% | viability, T/C [35]: 80.6% | viability, T/C [36]: 68.2%

SMILES: CCCS(=O)(=O)Nc1ccc(F)c(C(=O)c2c[nH]c3ncc(-c4ccc(Cl)cc4)cc23)c1F + Cc1[nH]c2ccc(F)cc2c1-c1nc2c3cccnc3c3ncccc3c2[nH]1
IC50 (second compound 0.0316 µM): > 10000 nM | IC50 (second compound 0.1 µM): > 10000 nM | IC50 (second compound 0.316 µM): > 10000 nM | IC50 (second compound 1 µM): 7430 nM | IC50 (second compound 3.16 µM): < 31.6 nM | IC50 (second compound 10 µM): 8370 nM | viability, T/C [4]: 98.7% | viability, T/C (second compound 0.0316 µM, first compound 0.1 µM): 106% | viability, T/C [6]: 112% | viability, T/C (second compound 0.0316 µM, first compound 1 µM): 130% | viability, T/C (second compound 0.0316 µM, first compound 3.16 µM): 123% | viability, T/C (second compound 0.0316 µM, first compound 10 µM): 65.2% | viability, T/C [10]: 110% | viability, T/C (second compound 0.1 µM, first compound 0.1 µM): 106% | viability, T/C [12]: 116% | viability, T/C (second compound 0.1 µM, first compound 1 µM): 124% | viability, T/C (second compound 0.1 µM, first compound 3.16 µM): 125% | viability, T/C (second compound 0.1 µM, first compound 10 µM): 65.6% | viability, T/C [16]: 97.6% | viability, T/C (second compound 0.316 µM, first compound 0.1 µM): 89.8% | viability, T/C [18]: 90% | viability, T/C (second compound 0.316 µM, first compound 1 µM): 107% | viability, T/C (second compound 0.316 µM, first compound 3.16 µM): 130% | viability, T/C (second compound 0.316 µM, first compound 10 µM): 59.8% | viability, T/C [22]: 71.8% | viability, T/C (second compound 1 µM, first compound 0.1 µM): 60.4% | viability, T/C [24]: 88.2% | viability, T/C (second compound 1 µM, first compound 1 µM): 90.8% | viability, T/C (second compound 1 µM, first compound 3.16 µM): 102% | viability, T/C (second compound 1 µM, first compound 10 µM): 38.7% | viability, T/C [28]: 17% | viability, T/C (second compound 3.16 µM, first compound 0.1 µM): 17.7% | viability, T/C [30]: 14.4% | viability, T/C (second compound 3.16 µM, first compound 1 µM): 18.3% | viability, T/C (second compound 3.16 µM, first compound 3.16 µM): 13.9% | viability, T/C (second compound 3.16 µM, first compound 10 µM): 4.94% | viability, T/C [34]: 65.9% | viability, T/C (second compound 10 µM, first compound 0.1 µM): 73.4% | viability, T/C [36]: 77.7% | viability, T/C (second compound 10 µM, first compound 1 µM): 93.8% | viability, T/C (second compound 10 µM, first compound 3.16 µM): 110% | viability, T/C (second compound 10 µM, first compound 10 µM): 43.6%

IC50 (second compound 0.0316 µM): 81.7 nM | IC50 (second compound 0.1 µM): 41.8 nM | IC50 (second compound 0.316 µM): 48.3 nM | IC50 (second compound 1 µM): 57 nM | IC50 (second compound 3.16 µM): 33 nM | IC50 (second compound 10 µM): 32.6 nM
SMILES: CCc1c2c(nc3ccc(O)cc13)-c1cc3c(c(=O)n1C2)COC(=O)[C@]3(O)CC + Cc1cnc(CNC(=O)c2c(=O)c3ccc(N4CCCN(C)CC4)nc3n3c2sc2ccccc23)cn1
viability, T/C [1]: 101% | viability, T/C [2]: 97.1% | viability, T/C [3]: 75.1% | viability, T/C [4]: 66.2% | viability, T/C [5]: 54.1% | viability, T/C [6]: 9.27% | viability, T/C [7]: 114% | viability, T/C [8]: 90.5% | viability, T/C [9]: 68.8% | viability, T/C [10]: 60.4% | viability, T/C [11]: 45.2% | viability, T/C [12]: 7.81% | viability, T/C [13]: 93.2% | viability, T/C [14]: 82.7% | viability, T/C [15]: 72.2% | viability, T/C [16]: 54.4% | viability, T/C [17]: 42.4% | viability, T/C [18]: 4.89% | viability, T/C [19]: 77.2% | viability, T/C [20]: 78.6% | viability, T/C [21]: 63.8% | viability, T/C [22]: 61.3% | viability, T/C [23]: 41.7% | viability, T/C [24]: 0.87% | viability, T/C [25]: 73.9% | viability, T/C [26]: 72.1% | viability, T/C [27]: 57.8% | viability, T/C [28]: 48.3% | viability, T/C [29]: 36.7% | viability, T/C [30]: 0.45% | viability, T/C [31]: 66.5% | viability, T/C [32]: 69.6% | viability, T/C [33]: 53.6% | viability, T/C [34]: 54.8% | viability, T/C [35]: 30.7% | viability, T/C [36]: 0.45%
